Read-outs that look alike come from different tables or passages of the source.
Tests used:
[1] = target: BRD4-BD1 (Homo sapiens (Human), UniProt O60885); test: BRD4 AlphaScreen Assay (Example A2), BRD4-BD1; format: binding; conditions: read-out: BRD4 BD-1 enzyme IC50
Method: (§1) BRD4-BD1 and BRD4-BD2 assays were conducted in white 384-well polystyrene plate in a final volume of 40 μL for BD1 and 60 μL for BD2. Inhibitors were first serially diluted in DMSO and added to the plate wells before the addition of other reaction components. […] The assays were carried out at room temperature in the assay buffer (50 mM Tris-HCl, pH 7.5, 0.01% Tween-20, 0.01% BSA, 5 mM DTT), containing 50 nM Biotin-labeled tetra-acetylated histone H4 peptide (H4Ac4) and BRD4-BD1 or BRD4-BD2 protein at concentration less than 1 nM. […] After plate sealing, the plate was incubated in the dark at room temperature for 75 min. before reading on a PHERAstar FS plate reader (BMG Labtech). IC50 determination was performed by fitting the curve of percent control activity versus the log of the inhibitor concentration using the GraphPad Prism 5.0 software.

[2] = target: BRD4-BD2 (Homo sapiens (Human), UniProt O60885); test: BRD4 AlphaScreen Assay (Example A2), BRD4-BD2; format: binding; conditions: read-out: BRD4 BD-2 enzyme IC50
Method: as §1

[3] = Assay A2, AlphaScreen, BRD4-BD1
[4] = Assay A2, AlphaScreen, BRD4-BD2

IC50 [1, 3] [nM]	IC50 [2, 4] [nM]	SMILES	IC50 [1] [nM]	IC50 [2] [nM]
< 100	< 100	Cc1noc(C)c1-c1ccc2nc(C3CCCN(S(C)(=O)=O)C3)n3c2c1OC[C@@H]3c1ccccn1 (mixture of isomers) [Example 119, (4S)-7-(3,5-dimethylisoxazol-4-yl)-2-[1-(methylsulfonyl)piperidin-3-yl]-4-pyridin-2-yl-4,5-dihydroimidazo[1,5,4-de][1,4]benzoxazine (mixture of diastereomers)]		
		CCC1(c2ccccn2)COc2c(-c3c(C)noc3C)ccc3[nH]c(=O)n1c23 (stereo not shown) [Example 70, 7-(3,5-Dimethylisoxazol-4-yl)-4-ethyl-4-pyridin-2-yl-4,5-dihydroimidazo[1,5,4-de][1,4]benzoxazin-2(1H)-one 2,2,2-trifluoroacetate]	< 100	< 100
< 100	< 100	Cc1noc(C)c1-c1ccc2nc(C3CCN(C(=O)OC(C)(C)C)CC3)n3c2c1OC[C@@H]3c1ccccn1 [Example 100, tert-Butyl 4-[(4S)-7-(3,5-dimethylisoxazol-4-yl)-4-pyridin-2-yl-4,5-dihydroimidazo[1,5,4-de][1,4]benzoxazin-2-yl]piperidine-1-carboxylate]		
< 100	< 100	Cc1noc(C)c1-c1cc(CO)c2[nH]c(=O)n3c2c1OCC3c1ccccn1 (stereo not shown) [Example 254, 7-(3,5-Dimethylisoxazol-4-yl)-9-(hydroxymethyl)-4-pyridin-2-yl-4,5-dihydroimidazo[1,5,4-de][1,4]benzoxazin-2(1H)-one]		
< 100	< 100	Cc1noc(C)c1-c1ccc2nc(C3CCNC3)n3c2c1OC[C@@H]3c1ccccn1 (single isomer, unassigned; diastereomer 1) [Example 106A]		
< 100	< 100	Cc1noc(C)c1-c1ccc2nc(N3CC[C@@H](NC(=O)N4CCOCC4)C3)n3c2c1OC[C@@H]3c1ccccn1 [Example 153, N-{(3R)-1-[(4S)-7-(3,5-Dimethylisoxazol-4-yl)-4-pyridin-2-yl-4,5-dihydroimidazo[1,5,4-de][1,4]benzoxazin-2-yl]pyrrolidin-3-yl}morpholine-4-carboxamide]		
100 to 1000	< 100	Cc1noc(C)c1-c1cc(-c2cncnc2)c2[nH]c(=O)n3c2c1OC[C@@H]3c1ccccn1 [Example 84, (4S)-7-(3,5-dimethylisoxazol-4-yl)-4-pyridin-2-yl-9-pyrimidin-5-yl-4,5-dihydroimidazo[1,5,4-de][1,4]benzoxazin-2(1H)-one 2,2,2-trifluoroacetate]		
< 100	< 100	CC(=O)N1CCC(c2nc3ccc(-c4c(C)noc4C)c4c3n2[C@@H](c2ccccn2)CO4)C1 (single isomer, unassigned; diastereomer 1) [Example 113A]		
1000 to 10000	100 to 1000	Cc1noc(C)c1-c1ccc2nc(N3CC(O)C3)n3c2c1OCC3c1cccnc1 (single isomer, unassigned) [Example 160A, 1-[7-(3,5-Dimethylisoxazol-4-yl)-4-pyridin-3-yl-4,5-dihydroimidazo[1,5,4-de][1,4]benzoxazin-2-yl]azetidin-3-ol]		

SMILES	IC50 [1, 3] [nM]	IC50 [2, 4] [nM]	IC50 [1] [nM]	IC50 [2] [nM]
Cc1noc(C)c1-c1cc(-c2cnn(C)c2)c2[nH]c(=O)n3c2c1OC[C@@H]3c1ccccn1 [Example 81, (4S)-7-(3,5-dimethylisoxazol-4-yl)-9-(1-methyl-1H-pyrazol-4-yl)-4-pyridin-2-yl-4,5-dihydroimidazo[1,5,4-de][1,4]benzoxazin-2(1H)-one 2,2,2-trifluoroacetate]	100 to 1000	< 100		
Cc1noc(C)c1-c1ccc2[nH]c(=O)n3c2c1OCC3C1CCCCN1C(=O)NC(C)C (stereo not shown) [Example 80, 2-[7-(3,5-dimethylisoxazol-4-yl)-2-oxo-1,2,4,5-tetrahydroimidazo[1,5,4-de][1,4]benzoxazin-4-yl]-N-isopropylpiperidine-1-carboxamide]	1000 to 10000	1000 to 10000		

— patent publication US9624241B2 (Incyte Corporation, priority 2013, dated 2017)
